From the supplement of paper PMC10307832

Assays:
Assay in all cases: relative viability (nuclei count vs DMSO), 5 days (fraction); higher = more cells survive
[1] = compound: CCN(CCO)CCCC(C)Nc1ccnc2cc(Cl)ccc12 [Hydroxychloroquine] + C[C@@H](Oc1cc(-c2cnn(C3CCNCC3)c2)cnc1N)c1c(Cl)ccc(F)c1Cl [Crizotinib] (partner 1 µM)
Outline: (§1)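 A single step with final 0.05% Triton X-100, 1% formaldehyde and 1 ug/ml Hoechst fixed the cells and stained nuclei 5 days after treatment. Lung cancer cell lines in 1536-well plates had been treated by pin tool the day after seeding with one drug alone or a fixed anchor-drug dose plus five library-drug doses (not always all listed) in √10 steps, and nuclei were counted on 4× images. Relative viability is the ratio of nuclei in treated wells to nuclei in vehicle wells, taken as the median of duplicate plates.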

[2] = compound: CCN(CCO)CCCC(C)Nc1ccnc2cc(Cl)ccc12 [Hydroxychloroquine] + O=C(CCCCCCC(=O)Nc1ccccc1)NO [Vorinostat] (partner 1 µM)
Outline: as §1

[3] = compound: CCN(CCO)CCCC(C)Nc1ccnc2cc(Cl)ccc12 [Hydroxychloroquine] + CC1(C)CCC(c2ccc(Cl)cc2)=C(CN2CCN(c3ccc(C(=O)NS(=O)(=O)c4ccc(N[C@H](CCN5CCOCC5)CSc5ccccc5)c(S(=O)(=O)C(F)(F)F)c4)cc3)CC2)C1 [Navitoclax] (partner 0.5 µM)
Outline: as §1

[4] = compound: CCN(CCO)CCCC(C)Nc1ccnc2cc(Cl)ccc12 [Hydroxychloroquine] + Cc1cc(Nc2cc(N3CCN(C)CC3)nc(Sc3ccc(NC(=O)C4CC4)cc3)n2)n[nH]1 [Tozasertib] (partner 0.1 µM)
Outline: as §1

| Cell Line | relative viability ([1]; first compound 0.5 µM) | relative viability ([1]; first compound 1.581 µM) | relative viability ([1]; first compound 5 µM) | relative viability ([1]; first compound 15.81 µM) | relative viability ([1]; first compound 50 µM) | relative viability ([2]; first compound 0.5 µM) | relative viability ([2]; first compound 1.581 µM) | relative viability ([2]; first compound 5 µM) | relative viability ([2]; first compound 15.81 µM) | relative viability ([2]; first compound 50 µM) | relative viability ([3]; first compound 0.5 µM) | relative viability ([3]; first compound 1.581 µM) | relative viability ([3]; first compound 5 µM) | relative viability ([3]; first compound 15.81 µM) | relative viability ([3]; first compound 50 µM) | relative viability ([4]; first compound 0.5 µM) | relative viability ([4]; first compound 1.581 µM) | relative viability ([4]; first compound 5 µM) | relative viability ([4]; first compound 15.81 µM) | relative viability ([4]; first compound 50 µM) |
| --- | --- | --- | --- | --- | --- | --- | --- | --- | --- | --- | --- | --- | --- | --- | --- | --- | --- | --- | --- | --- |
| NCI-H1651 | 0.926 | 0.884 | 0.83 | 0.853 | 0.911 | 0.582 | 0.589 | 0.583 | 0.579 | 0.493 | 0.927 | 1.05 | 1.12 | 1.07 | 1.01 | 0.845 | 0.62 | 0.762 | 0.65 | 0.714 |
| PC-14 | 0.856 | 0.917 | 0.919 | 0.907 | 0.916 | 0.672 | 0.583 | 0.753 | 0.687 | 0.781 | 1.03 | 1.07 | 0.979 | 1.01 | 0.962 | 0.58 | 0.537 | 0.54 | 0.544 | 0.55 |
| NCI-H647 | 1.23 | 1.07 | 1.21 | 1.12 | 1.33 | 0.662 | 0.704 | 0.603 | 0.616 | 0.612 | 1.23 | 0.938 | 1.29 | 1.19 | 1.31 | 0.263 | 0.357 | 0.278 | 0.346 | 0.272 |
| SW 1573 | 0.782 | 0.839 | 0.872 | 0.76 | 0.753 | 0.689 | 0.627 | 0.878 | 0.734 | 0.951 | 0.971 | 0.884 | 1.01 | 1.03 | 0.972 | 0.217 | 0.203 | 0.167 | 0.188 | 0.147 |
| NCI-H460 | 0.985 | 0.91 | 0.938 | 0.745 | 0.952 | 0.733 | 0.865 | 0.812 | 0.815 | 0.83 | 1.24 | 1.35 | 1.19 | 1.36 | 1.41 | 0.515 | 0.4 | 0.377 | 0.413 | 0.516 |
| SK-MES-1 | 0.933 | 0.955 | 1.13 | 1.1 | 1.03 | 1.33 | 0.882 | 1.2 | 1.23 | 1.27 | 1.45 | 1.21 | 1.25 | 1.27 | 1.17 | 1.06 | 0.943 | 1.02 | 1.02 | 0.94 |
| NCI-H1355 | 1.08 | 1.01 | 1.11 | 1.08 | 1.1 | 0.657 | 0.582 | 0.631 | 0.63 | 0.657 | 0.891 | 0.879 | 0.876 | 0.991 | 1.01 | 0.616 | 0.493 | 0.513 | 0.557 | 0.508 |
| UMC-11 | 0.586 | 0.573 | 0.69 | 0.664 | 0.846 | 0.4 | 0.314 | 0.387 | 0.393 | 0.457 | 0.307 | 0.288 | 0.299 | 0.322 | 0.327 | 0.191 | 0.188 | 0.217 | 0.393 | 0.196 |
| NCI-H2347 | 0.887 | 0.588 | 0.544 | 0.728 | 0.85 | 0.663 | 0.456 | 0.604 | 0.639 | 0.58 | 0.784 | 0.81 | 0.689 | 0.851 | 0.702 | 0.553 | 0.455 | 0.664 | 0.402 | 0.469 |
| LCLC-97TM1 | 0.379 | 0.259 | 0.4 | 0.449 | 0.481 | 0.778 | 0.742 | 0.772 | 0.766 | 0.797 | 0.432 | 0.619 | 0.656 | 0.517 | 0.397 | 0.282 | 0.254 | 0.229 | 0.509 | 0.26 |
| EMC-BAC-2 | 0.826 | 0.743 | 0.741 | 0.755 | 0.807 | 0.492 | 0.443 | 0.375 | 0.425 | 0.328 | 1.17 | 1.23 | 1.17 | 1.17 | 1.36 | 0.307 | 0.289 | 0.31 | 0.286 | 0.258 |
| NCI-H1975 | 1.05 | 1.08 | 0.926 | 1.06 | 1.15 | 0.682 | 0.704 | 0.8 | 0.742 | 0.717 | 1.08 | 1.05 | 1.15 | 1.03 | 1.22 | 0.84 | 0.695 | 0.856 | 0.858 | 0.847 |
| BEN | 0.848 | 0.728 | 0.863 | 0.947 | 1.01 | 0.632 | 0.563 | 0.638 | 0.635 | 0.608 | 0.051 | 0.0669 | 0.0688 | 0.0612 | 0.0766 | 0.606 | 0.465 | 0.551 | 0.501 | 0.622 |
| NCI-H23 | 0.473 | 0.537 | 0.579 | 0.446 | 0.603 | 0.674 | 0.566 | 0.56 | 0.626 | 0.67 | 0.841 | 0.822 | 0.842 | 0.732 | 0.953 | 0.56 | 0.337 | 0.41 | 0.65 | 0.424 |
| NCI-H596 | 0.918 | 1.04 | 1.05 | 1.05 | 1.01 | 0.612 | 0.765 | 0.523 | 0.398 | 0.587 | 0.857 | 0.853 | 0.933 | 0.979 | 0.998 | 1.16 | 0.994 | 0.858 | 0.865 | 0.987 |
| CAL-12T | 0.577 | 0.614 | 0.92 | 0.579 | 0.831 | 0.865 | 0.725 | 0.684 | 0.873 | 0.979 | 1.06 | 1.22 | 1.21 | 1.23 | 1.23 | 0.342 | 0.276 | 0.336 | 0.296 | 0.378 |
